Measured values taken from ChEMBL document CHEMBL6182856, “Novel one-/two-photon excited carbazole/quinolinium photosensitizers manifest nanomolar and hypoxia-resistant tumor photodynamic therapy by accelerating apoptosis, ferroptosis, and autophagy” (Eur J Med Chem, 2025).
Activity calls are given as the source filed them. The rule behind the calls is not given here.

Tests used:
[1] = Photosensitizing ability of the compound assessed as hydroxyl radical production measured upon irradiation by HPF probe based assay; type: functional
[2] = Photosensitizing ability of the compound assessed as superoxide radical production measured upon irradiation by electron spin resonance analysis; type: functional
[3] = Phototoxicity against human A549 cells assessed as inhibition of cell growth incubated for 24 hrs measured under normoxia conditions and after two-photon excitation upon irradiation with light at 808 nm, 200 mW/cm2 for 10 mins by MTT assay; type: functional, cell-based; conditions: A549, light or radiation study
[4] = Phototoxicity against human A549 cells assessed as inhibition of cell growth at 1.56 to 400 nM incubated for 24 hrs measured under normoxia conditions and after one-photon excitation upon irradiation with light at 520 nm, 200 mW/cm2 for 10 mins by MTT assay relative to control; type: functional; conditions: dose 1.56-400 nM
[5] = system: A549; assay: Cytotoxicity against human A549 cells assessed as inhibition of cell growth incubated for 24 hrs measured under normoxia conditions by MTT assay; type: functional, cell-based; conditions: A549, 24 h
[6] = Phototoxicity against mouse 4T1 cells assessed as inhibition of cell growth incubated for 24 hrs measured under normoxia conditions and after one-photon excitation upon irradiation with light at 520 nm, 200 mW/cm2 for 10 mins by MTT assay; type: functional, cell-based; conditions: 4T1, light or radiation study
[7] = Phototherapeutic index, ratio of IC50 for cytotoxicity against human A549 cells measured under normoxia conditions to IC50 for phototoxicity against human A549 cells measured under normoxia conditions and after two-photon excitation upon irradiation with light at 808 nm, 200 mW/cm2 for 10 mins; type: functional
[8] = Phototherapeutic index, ratio of IC50 for cytotoxicity against human HT-29 cells measured under normoxia conditions to IC50 for phototoxicity against human HT-29 cells measured under normoxia conditions and after one-photon excitation upon irradiation with light at 520 nm, 200 mW/cm2 for 10 mins; type: functional
[9] = Phototoxicity against human A549 cells assessed as inhibition of cell growth incubated for 24 hrs measured under hypoxia conditions and after two-photon excitation upon irradiation with light at 808 nm, 200 mW/cm2 for 10 mins by MTT assay; type: functional, cell-based; conditions: A549, light or radiation study
[10] = Phototherapeutic index, ratio of IC50 for cytotoxicity against human A549 cells measured under hypoxia conditions to IC50 for phototoxicity against human A549 cells measured under hypoxia conditions and after two-photon excitation upon irradiation with light at 808 nm, 200 mW/cm2 for 10 mins; type: functional
[11] = Selectivity index, ratio of IC50 for cytotoxicity against human HFL1 cells measured under normoxia conditions to IC50 for phototoxicity against human A549 cells measured under normoxia conditions and after one-photon excitation upon irradiation with light at 520 nm, 200 mW/cm2 for 10 mins; type: toxicity, cell-based; conditions: HFL1 cells versus A549 cells, read-out: Ratio IC50
[12] = Selectivity index, ratio of IC50 for cytotoxicity against human HFL1 cells measured under normoxia conditions to IC50 for cytotoxicity against human A549 cells measured under normoxia conditions; type: toxicity, cell-based; conditions: HFL1 cells versus A549 cells, read-out: Ratio IC50
[13] = system: A549; assay: Induction of apoptosis in human A549 cells assessed as increase in Bax expression measured upon light irradiation by western blot analysis relative to control; type: functional
[14] = Drug uptake in human A549 cells assessed as localization in lysosomes by measuring appearance of yellow fluorescence by Hoechst33342/LysoTracker dye based confocal laser scanning microscopic analysis; type: ADME, cell-based
[15] = Drug uptake in human A549 cells assessed as localization in mitochondria by measuring appearance of yellow fluorescence by Hoechst33342/MitoTracker dye based confocal laser scanning microscopic analysis; type: ADME
[16] = system: A549; assay: Induction of ROS generation in human A549 cells assessed as intracellular singlet oxygen level measured under normoxia conditions by SOSG probe based fluorescence analysis; type: functional, cell-based
[17] = system: A549; assay: Photosensitizing ability of the compound in human A549 cells assessed as increase in intracellular ROS generation by measuring increase in fluorescence intensity measured upon light irradiation under normoxia conditions by DCFH-DA staining based fluorescence analysis relative to FLI in cells without irradiation; type: functional
[18] = system: A549; assay: Induction of mitochondrial damage in human A549 cells assessed as decrease in red fluorescence intensity measured upon light irradiation by JC-1 staining based fluorescence analysis; type: functional, cell-based
[19] = system: A549; assay: Induction of mitochondrial damage in human A549 cells assessed as increase in green fluorescence intensity measured upon light irradiation by JC-1 staining based fluorescence analysis; type: functional, cell-based
[20] = system: A549; assay: Induction of apoptosis in human A549 cells assessed as viable cells measured upon light irradiation by AnnexinV-FITC/PI staining based flow cytometric analysis (reference value: 98.4%); type: functional
[21] = system: A549; assay: Induction of apoptosis in human A549 cells assessed as early apoptotic cells measured upon light irradiation by AnnexinV-FITC/PI staining based flow cytometric analysis (reference value: 0.39%); type: functional
[22] = system: A549; assay: Induction of apoptosis in human A549 cells assessed as reduction in Bcl-2 expression measured upon light irradiation by western blot analysis relative to control; type: functional
[23] = system: A549; assay: Induction of DNA damage in human A549 cells assessed as increase in gammaH2AX expression measured upon light irradiation by western blot analysis relative to control; type: functional
[24] = system: A549; assay: Induction of ferroptosis in human A549 cells assessed as increase in lipid peroxidation by measuring decrease in GSH level measured upon irradiation relative to control; type: functional
[25] = system: A549; assay: Induction of ferroptosis in human A549 cells assessed as increase in lipid peroxidation by measuring decrease in GPX4 protein expression measured upon irradiation by western blot analysis relative to control; type: functional
[26] = system: A549; assay: Induction of ferroptosis in human A549 cells assessed as increase in lipid peroxidation by measuring increase in MDA level measured upon irradiation relative to control; type: functional
[27] = system: A549; assay: Induction of ferroptosis in human A549 cells assessed as increase in lipid peroxidation by measuring reduction in red fluorescence of the reduced state measured upon irradiation by BODIPY 581/591C11 probe based confocal imaging analysis; type: functional, cell-based
[28] = system: A549; assay: In vivo photodynamic therapy based antitumor activity against human A549 cells xenografted in mouse assessed as tumor growth inhibition administered intratumorally on day 0 and 7 and measured on day 15; type: functional; conditions: route it(Intratumoral); time 15 day
[29] = Toxicity against mouse xenografted with human A549 cells assessed as changes in body weight administered intratumorally on day 0 and 7 and measured for 15 days; conditions: in vivo, other, 360 h, route it(Intratumoral), time 15 day
[30] = Toxicity against mouse xenografted with human A549 cells assessed as changes in biochemical indicators administered intratumorally on day 0 and 7 and measured on day 15; conditions: in vivo, other, 360 h, route it(Intratumoral), time 15 day
[31] = Photosensitizing ability of the compound in methanol assessed as singlet oxygen production by measuring quantum yield upon irradiation by DPBF based assay relative to KNKQ; type: functional
[32] = Photosensitizing ability of the compound in methanol assessed as singlet oxygen production by measuring quantum yield upon irradiation by DPBF based assay relative to KAKQ; type: functional
[33] = Photosensitizing ability of the compound assessed as superoxide radical production upon irradiation by DHE probe based assay relative to KNKQ; type: functional
[34] = Photosensitizing ability of the compound assessed as hydroxyl radical production upon irradiation by HPF probe based assay relative to KAKQ; type: functional
[35] = Photosensitizing ability of the compound assessed as hydroxyl radical production upon irradiation by HPF probe based assay relative to KNKQ; type: functional

## CCn1c2ccc(/C=C/c3cc[n+](C)c4ccccc34)cc2c2cc(N(c3ccccc3)c3ccccc3)ccc21.[I-]
[1]
  Activity: Active
[2]
  Activity: Active
[3]
  IC50: 130 nM
[4]
  inhibition (INH): 24.4%
[5]
  IC50: 1470 nM
[6]
  IC50: 51 nM
[7]
  Ratio IC50: 11
[8]
  Ratio IC50: 51
[9]
  IC50: 200 nM
[10]
  Ratio IC50: 10
[11]
  selectivity ratio at 10 min: 330
[12]
  selectivity ratio: 6
[13]
  fold change (FC): 5
[14]
  Drug uptake: Active
[15]
  Drug uptake: Active
[16]
  Activity: inactive
[17]
  fold change (FC): 4
[18]
  Activity: Active
[19]
  Activity: Active
[20]
  Activity: 7.29%
[21]
  Activity: 2.36%
[22]
  fold change (FC): ~3
[23]
  fold change (FC): 4
[24]
  fold change (FC): 100
[25]
  fold change (FC): 3.3
[26]
  fold change (FC): 10
[27]
  Activity: Active
[28]
  TGI: 70.6%
[29]
  Activity: Non-toxic
[30]
  Activity: Non-toxic
[31]
  fold change (FC): 3
[32]
  fold change (FC): 3
[33]
  fold change (FC): 8
[34]
  fold change (FC): 3
[35]
  fold change (FC): 3
